The target of one data set is T1, human type PPARα (Homo sapiens, UniProt Q07869).
T1 construct: expressed in transfected cells; host or cells: CHO cells
T1 sequence (Q07869 239-466 limits assumed): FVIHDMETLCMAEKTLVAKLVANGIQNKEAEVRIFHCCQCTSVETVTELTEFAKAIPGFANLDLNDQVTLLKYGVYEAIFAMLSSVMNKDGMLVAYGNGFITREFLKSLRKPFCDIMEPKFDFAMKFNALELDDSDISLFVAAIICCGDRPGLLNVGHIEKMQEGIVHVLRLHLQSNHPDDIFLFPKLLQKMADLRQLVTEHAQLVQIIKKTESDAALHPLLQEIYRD
As to the kind of experiment: Test of transcriptional activation on peroxisome proliferator-activated receptor α. The format is cell-based. Particulars: CHO cells cotransfected with yeast DNA-binding domain/human PPARα ligand-binding domain fusion receptor plasmid, reporter plasmid and Renilla luciferase internal standard; luciferase measured after 24 hours; read-out: Transcription-activating function EC50. An excerpt: Test of Transcriptional Activation on Peroxisome Proliferator-Activated Receptor α
To CHO cells cultured in a Dulbecco-modified Eagle's medium containing 10% delipid fetal calf serum (FCS/DMEM), receptor plasmid that expresses fused protein of DNA-binding domain being transcription factor of yeast with ligand-binding domain of human type PPARα (Biochemistry, 1993, 32, 5598), its reporter plasmid (STRATAGENE Corp.) and luciferase plasmid of Renilla (Promega Corp.) as internal standard were cotransfected with lipofectamine in the serum-free state. Thereafter, testing compound was added in the 10% SFCS/DMEM and both luciferase activities were measured after 24 hours, which were corrected with internal standard.

In the case of `CCC(Cc1ccc(OC)c(CC(=O)Nc2ccc(C(F)(F)F)cc2)c1)C(=O)O` (single isomer, unassigned; (-)) [Example 121 (−), (−)-2-ethyl-3-[4-methoxy-3-[[N-[4-(trifluoromethyl)phenyl]carbamoyl]methyl]-phenyl]propanoic acid], the melting point lay in the range of 121 to 123 °C.
As to `CCCCC/C=C\C/C=C\C=C\[C@@H](O)C/C=C\CCCC(=O)O` [(8S) HETE, reference compound], the EC50 on human type PPARα is 1300 nM.
As to `COc1ccc(CC(OC)C(=O)O)cc1NC(=O)Cc1ccc(C(F)(F)F)cc1` (stereo not shown) [Example 39, 2-Methoxy-3-[4-methoxy-3-[2-[4-(trifluoromethyl)phenyl]acetylamino]phenyl]propanoic acid], the melting point lay in the range of 124 to 125 °C.
On to `COc1ccc(CCC(=O)O)cc1NC(=O)Cc1ccc(-c2ccccc2)cc1` [Example 44], for which the melting point turned out to be 177 °C. The EC50 at human type PPARα turned out to be 130 nM.
`CCC(Cc1ccc(OC)c(NC(=O)Cc2ccc(OCc3ccccc3)cc2)c1)C(=O)O` (stereo not shown) [Example 46]: at human type PPARα, the EC50 was 50 nM.
Same read-out and setting: with `COc1ccc(CC(OC)C(=O)O)cc1NC(=O)Cc1ccc(Oc2ccccc2)cc1` (stereo not shown) [Example 70] the figure was 160 nM.
`CCC(Cc1ccc(OC)c(CC(=O)Nc2ccc(C(F)(F)F)cc2)c1)C(=O)O` (stereo not shown) [Example 88, 2-Ethyl-3-[4-methoxy-3-[[N-[4-(trifluoromethyl)phenyl]carbamoyl]methyl]phenyl]propanoic acid]: the melting point is 136 to 137 °C. The EC50 at human type PPARα is 15 nM.
Consider `CCC(Cc1ccc(OC)c(OCCc2ccc(C(F)(F)F)cc2)c1)C(=O)O` (stereo not shown) [Example 120, 2-Ethyl-3-[4-methoxy-3-[2-[4-(trifluoromethyl)phenyl]ethoxy]phenyl]propanoic acid], for which the melting point lay in the range of 64 to 66 °C.

In general, melting point refers to the temperature of the solid-liquid transition. Broadly, the EC50 is the concentration needed to bring the measured effect to its halfway point.

The record behind these values is patent publication US7049342B2, “Substituted phenylpropionic acid derivatives” (Kyorin Pharmaceutical Co., Ltd., priority 2000, dated 2006).
